For one experiment, the system named is BSp73ASs6 cells. Put plainly: Rat syngeneic model, subcutaneous BSp73ASs6 tumors, metastasis formation. The format is in vivo. The settings on record: 200 μg per injection three times a week; for outgrowth of primary tumors: 28 days; for metastasis (axillary lymph nodes and lungs): intra-tumoral or intravenously, start one week after cell injection. How it is done: In the case of the rat syngeneic model, 1×10^6 pancreatic cells (BSp73AS and its transfectants) were subcutaneously injected into the right posterior flank of the animals. Tumors developed for four weeks. During this time period animals injected with BSp73ASs6 cells expressing Met-shRNA or control-shRNA received doxycycline in the drinking water. At the end of the experiment, primary tumors were isolated. Lungs and axillary lymph nodes were analyzed. The tissues were incubated for 24 h in a zinc-fixative (0.5 g calcium acetate, 5.0 g zinc acetate, 5.0 g zinc chloride, in 1 L 0.1 M Tris pH 7.4) and embedded in paraffin for further analysis. In case of peptide or antibody treatment tumors developed for one week before the first treatment. Where indicated, animals received 200 μg of peptide or antibody per injection three times per week for four weeks. Tumor growth was monitored weekly using a caliper Animals were killed at day 28 or 30 after start of the treatment.
For histomorphological analysis paraffin-embedded sections of lungs were stained with hematoxylin and eosin and periodic acid-Schiff (H&E or PAS). Serial sections of the whole tissue blocks were examined by analyzing slices every 20 μm; in each slice, the presence and the extension of the metastatic deposit was assessed, according to the procedure routinely used by pathologists to evaluate the presence of micrometastases.
Rat peptides had the sequences KEKWFENEWQGKNP (SEQ ID NO: 10) and NEWQG (SEQ ID NO: 11). BSp73ASs6 cells were subcutaneously injected into syngeneic rats and rat CD44v6 peptides of SEQ ID NO: 10 or SEQ ID NO: 11 (or mouse control peptides) or the CD44v6 antibody (or IgGs as a control) were injected intra-tumoral or intravenously three times a week. […] This is compatible with the fact that also BSp73AS cells or BSp73ASv1-10Δv6 cells can induce the formation of primary tumors similarly to the v6 transfectants.

The subject of experiment [1] is Met activation and downstream signaling to ERK. Put plainly: HGF-induced activation of Met and ERK in L3.6p1 cells (western blot). The format is cell-based, human. The following applies: HGF 10 ng/ml. How it is done:
(§1) Serum-starved cells (24 hours) were induced with the growth factor HGF (10 ng/mL) at 37° C. for 5 minutes. Where indicated, the cells were treated with peptides (100 ng/ml) prior to induction at 37° C. for 10 minutes (100 ng/mL CD44v6 peptide or control peptide). Following the induction with HGF, cells were washed with ice-cold phosphate-buffered saline (PBS). To detect activated Met and Erk, cells were lysed in sodium dodecyl sulfate (SDS)-sample buffer containing 100 mM dithiothreitol (DTT), boiled and subjected to western blot analysis using antibodies against phospho-Met and ERK. The loading controls were performed on the same blot after stripping (62.5 mM Tris, pH 6.8, 2% SDS, 0.8% DTT) by probing with the Met respectively ERK antibody. Blots were stained using the enhanced chemiluminescence system (Thermo Fisher Scientific, Schwerte, Germany). Bands in western blot analysis were quantified with the program Image J (National Institutes of Health).
To expand the studies to human pancreatic tumors, the highly metastatic human pancreatic carcinoma cells L3.6p1 (Bruns, et al. Neoplasia (1999), 1(1):50-62) were investigated. These cells originate from the […] cells that have been passaged several times in the liver and the pancreas, a step that rendered them more and more metastatic. It was confirmed that Met is dependent on CD44v6 for its activation and signaling in these cells (FIG. 4A). The L3.6p1 cells were treated with HGF in the presence or absence of a human v6 peptide of SEQ ID NO: 2 or SEQ ID NO:6 and Met activation and downstream signaling to ERK was measured.

Experiment [2] deals with L3.6p1 pancreatic carcinoma cells. As to the kind of experiment: Human orthotopic model, L3.6p1 cells in the pancreas of nude mice. The following applies: for outgrowth / size of the primary tumor: 20 μg per injection i.p. three times per week for three weeks. The format is in vivo, mouse. How it is done: In the case of the human orthotopic model, L3.6p1 pancreatic carcinoma cells (passage 24-26) were suspended in Hank's balanced salt solution (Invitrogen, Karlsruhe, Germany) after trypsinization. The cells were injected orthotopically in the pancreas of male nude mice as described (Bruns C J et al. (1999) Neoplasia 1(1):50-62). Two groups of 15 mice each were injected i.p. 7 days later with either the human v6 peptide respectively rat control peptide (20 μg). For all experiments described and depicted herein either the rat 14mer control peptide or the human 14mer peptide were used. All experiments were then repeated with the rat 5mer control peptide or the human 5mer peptide (N-R-W-H-E, SEQ ID NO: 2). […] The injection was repeated three times per week for 21 days. Two days after the last treatment the animals were killed.
(§2) 7 μm thick paraffin sections were deparaffinized and rehydrated. For P-Met staining antigen unmasking was achieved by boiling the slides in 1 mM EDTA pH 8.0 followed by incubation for 15 minutes at a sub-boiling temperature, for CD31 staining the sections were treated with Proteinase K (8 μg/ml) for 10 min at 37° C. For immunofluorescence staining of P-Met, unspecific binding was blocked with 5% goat serum (DAKO, Glostrup, Denmark) (diluted in 1×PBS/0.3% Triton X-100) for 60 minutes. In the case of immunohistochemistry, endogenous peroxidases were at first blocked with 3% H2O2 in PBS followed by incubation with biotin blocking system (Dako, Glostrup, Denmark) and then unspecific binding was inhibited by incubation with 5% FCS in PBS. The sections were incubated with the P-Met antibody (D26, dilution 1:50 in 1×PBS/1% BSA/0.3% Triton X-100), Met antibody (C-28, dilution 1:50), GFP antibody (sc-101525, dilution 1:50) or antibody (5 μg/ml) over night or VFF18 (5 μg/ml) o/n at 4° C. After washing in PBS the sections were incubated with Alexa Fluor R 546 goat anti-rabbit (in case of immunofluorescence P-Met and Met staining, dilution 1:500) or a biotinylated secondary antibody (for immunohistochemical stainings rabbit anti-rat antibody for VFF18 and CD31, goat anti-rabbit for P-Met, cleaved Caspase-3 and cleaved Caspase-8 and rabbit anti-mouse for GFP, dilution 1:500) for 45 minutes. For DAB (3,3′-diaminobenzidine) staining the sections were treated with a streptavidin-peroxidase conjugate (Dako, Glostrup, Denmark) and developed with DAB substrate system (3,3′-diaminobenzidine; Biozol, Eching, Germany) For immunofluorescence DAPI was used for nuclear staining.
The three CD44v6 specific compounds (v6 5mer, PEG840-v6 5mer and PEG2000-v6 5mer of human origin) and a control peptide were applied in three concentrations (2 μg, 20 μg, 200 μg per injection) three times per week i.p. for 4 weeks. One week before start of the treatment the L3.6p1 tumor cells were orthotopically implanted into nude mice.
Animals were implanted orthotopically with L3.6p1 cells. Tumor growth was allowed for one week before the treatment with the linear v6 14mer, the cyclic v6 8mer as well as the control peptide (rat v6 14mer) was started. All peptides were injected three times per week at a concentration of 0.2, 2 and 10 μg per injection for 3 weeks. At the end of the treatment animals were sacrificed.
A comparison of different CD44v6 peptide derivatives was performed in animals bearing a orthotopic L3.6p1 tumor. 10 groups of 5 animals each received a dose of 20 μg peptide per injection three times per week for 3 weeks with the compounds listed in Table 4. Three weeks after starting the treatment the animals were sacrificed and analyzed for macroscopic metastases and tumor volume.

The test system of experiment [3] is BSp73ASs6 lung metastases. As to the kind of experiment: Apoptosis in established lung metastases (cleaved Caspase-3 and Caspase-8 staining). Format: in vivo, rat. The settings on record: for apoptotic cells in lung metastases (cleaved Caspase 3): injection every second day from three weeks after cell injection. On the procedure: as §2
One hypothesis for the disappearance of metastases is that the peptides induce apoptosis of CD44v6-expressing metastatic cells in the secondary organs. In order to test this hypothesis, the experiment described above using the BSp73ASs6 cells was repeated. The cells were injected subcutaneously in syngeneic rats and the tumor was allowed to develop for three weeks. After that time the animals were separated in two groups of 10 animals that were injected either with the specific rat CD44v6 peptide or with the control peptide (mouse) every second day. One day following each injection of the peptide, the lungs of one animal were removed and apoptosis was measured using an antibody that detects the cleaved form of Caspase 3. […] From these experiments, it is concluded that the CD44v6 peptide induces apoptosis of metastatic cells.
To discriminate whether the intrinsic pathway characterized by the release of mitochondrial proteins or the extrinsic pathway activated by ligand-bound death receptors for apoptosis was induced by the v6 peptide the expression of cleaved caspase-8 in the metastases treated with the v6 peptide was investigated. […] From these experiments we conclude that the CD44v6 peptide induces apoptosis of metastatic cells via the extrinsic apoptotic pathway.

The test system of experiment [4] is HGF induced activation of the receptor tyrosine kinase Met and ERK. As to the kind of experiment: HGF-induced activation of Met and ERK in BSp73ASs6 cells (western blot). The format is cell-based, rat. The following applies: HGF 10 ng/ml, peptide added 10 min before induction. On the procedure:
as §1
The PEG-control peptide and PEG-rat CD44v6 peptide were compared for their ability to block HGF induced activation of the receptor tyrosine kinase Met and ERK. […]
Activation of ERK and Met was determined by standard SDS and Western Blotting techniques using a phospho-Met and phospho-Erk specific antibody (phospho-Met clone D16 cell signaling, phospho-Erk p42/44 cell signaling)
A general note: A western blot detects proteins with antibodies after separation by electrophoresis.

Experiment [5] deals with L3.6p1 pancreatic carcinoma cells. Put plainly: Human orthotopic model, L3.6p1 cells in the pancreas of nude mice. Format: in vivo, mouse. The settings on record: dose reduction experiment, 0.2 to 20 μg per injection three times per week for 3 weeks.

We go through five substances from patent US9586993B2, “CD44v6-derived peptides for treating pancreatic cancer” (AMCURE GMBH, priority 2012, dated 2017).

Entries after “also recorded” stand apart in the source; their conditions may differ. No end group written: not given here.

As to “KEKWFENEWQGKNP [rat 14mer, rat CD44v6 14mer peptide; control in human systems]”, in the experiment on BSp73ASs6 cells, the “metastasis and micro-metastasis in lung sections (PAS and H&E staining)” value was “neither metastasis nor micro-metastasis could be detected”; the “outgrowth of primary tumors” value is “not influenced by either treatment”; the “metastasis (axillary lymph nodes and lungs)” value is “completely inhibited metastasis”. In addition, the “inhibition of HGF-induced activation (phosphorylation) of Met and ERK” value in experiment [1] was “had no influence on receptor activation and signal transduction”. Also, in experiment [2] (start one week after implantation, listed as rat-specific peptide (ctrl peptide)), the “outgrowth / size of the primary tumor” value is “had no influence on metastasis formation or on growth of the primary tumor”. Also, the “metastasis formation (liver)” value in experiment [2] (20 μg per injection i.p. three times per week, start one week after implantation, listed as rat-specific peptide (ctrl peptide)) is listed as “neither any influence on metastasis formation; also recorded: had no influence on metastasis formation or on growth of the primary tumor”. The “apoptosis twelve days after injection” value in experiment [3] (cleaved Caspase 3) is listed as “less apoptosis was observed”. Also, the “time of maximum of apoptosis” value in experiment [3] (cleaved Caspase 3, injection every second day) is “eight days after the first injection”. Moreover, in experiment [3] (injection every second day), the “cleaved caspase-8 in lung metastases” value is “kinetic of activation of caspase-8 similar to the one obtained for caspase-3” and the “lung metastasis at day twenty-two” value is “no metastasis could be detected anymore”. In addition, the “apoptotic cells in lung metastases (cleaved Caspase 3)” value in experiment [3] is reported as “detected as early as three days after the first injection”.

For the substance “NEWQG [rat 5mer, rat CD44v6 5mer peptide]”, in the experiment on BSp73ASs6 cells, the “metastasis and micro-metastasis in lung sections (PAS and H&E staining)” value is “neither metastasis nor micro-metastasis could be detected”; the “outgrowth of primary tumors” value is on record as “not influenced by either treatment”; the “metastasis (axillary lymph nodes and lungs)” value is given as “completely inhibited metastasis”. Moreover, in experiment [1], the “inhibition of HGF-induced activation (phosphorylation) of Met and ERK” value is “had no influence on receptor activation and signal transduction”. Moreover, the “results in the human orthotopic model compared with the 14mer peptides” value in experiment [2] (20 μg i.p. three times per week for 21 days) was “same results as for the 14mer peptides were observed”.

For “WFQNGWQGKNP (also: DY681 dye, position not given here) [DY681 mouse v6 peptide, mouse 11mer labeled with the fluorescent dye DY681, control, reference compound]”, the “inhibition of HGF-induced activation of Met and Erk” value in experiment [4] is listed as “but not the mouse peptide inhibited Met activation”.

Consider “cy[KGNRWHEG] (also: cyclic, ring type not given here) [cycl. 8 mer]”, for which the “metastasis formation (liver)” value in experiment [2] (2 μg per injection i.p. three times per week) was “blocked metastatic spreading at 2 and 20 μg per injection very efficiently”; in experiment [2] (20 μg per injection i.p. three times per week, start one week after implantation, listed as cyclic 8mer) it was “complete inhibition of metastasis”; in experiment [2] (20 μg per injection i.p. three times per week, start one week after implantation, listed as cyclic v6 8mer) it was “blocked metastatic spreading at 2 and 20 μg per injection very efficiently”. For the same substance, the “outgrowth / size of the primary tumor” value in experiment [2] (start one week after implantation) is listed as “strongest reduction of tumor size”. The “size / growth of the primary tumor” value is listed as “reduces growth of the primary tumor” in experiment [5] (listed as cyclic 8mer) and “drastic effect on growth of the primary tumor” in experiment [5] (listed as cyclic v6 8mer).

Consider “mouse control peptides: mouse CD44v6 peptide used as control in the rat system (WFQNGWQGKNP) [reference compound]”, for which, in the experiment with BSp73ASs6 cells, the “metastasis (axillary lymph nodes and lungs)” value is on record as “numerous metastases were detected in the lungs”. The “lung metastasis at day twenty-two” value in experiment [3] (injection every second day) is listed as “metastatic spreading was evident in the lungs”. Besides, the “apoptotic cells in lung metastases (cleaved Caspase 3)” value in experiment [3] is “No apoptosis at all was detected”.
